Values after ≈ are worked out from the molar mass of the structure shown.
Assays:
[1] = tested on: Weizenmehltau (Erysiphe graminis); assay: wheat powdery mildew, curative spray test on wheat plants (Versuch I); assay type: in vivo; settings: untreated infected control = 100 %
Method: Weizenpflanzen werden im 3-Blattstadium mit Konidien des Weizenmehltaus (Erysiphe graminis) stark inokuliert und in einem Gewächshaus bei 20°C und einer relativen Luftfeuchte von 90 - 95% aufgestellt. 3 Tage nach Inokulation werden die Pflanzen mit den in Tabelle 6 aufgeführten Verbindungen in den angegebenen Wirkstoffkonzentrationen gleichmäßig benetzt. Nach einer Inkubationszeit von 10 Tagen werden die Pflanzen auf den Befall mit Weizenmehltau untersucht. Der Befallsgrad wird ausgedrückt in % befallener Blattfläche, bezogen auf unbehandelte, infizierte Kontrollpflanzen (= 100% Befall). Das Ergebnis ist in der Tabelle 6 zusammengefaßt.

[2] = tested on: Aspergillus niger (500/284); assay: in vitro antimycotic serial dilution test (microtitration technique); assay type: cell-based; settings: read-out: Minimale Hemmkonzentration
Excerpt: (§1) Die in vitro-Prüfungen auf antimykotische Wirkung wurden im Reihenverdünnungstest an Hauptpilzen (Trichophyton mentagrophytes, Trichophyton rubrum, Microsporum canis), Hefepilzen (Candida Albicans) und Schimmelpilzen (Aspergillus niger) durchgeführt (Material und Methodik: Mikrotitrationstechnik veröffentlicht in Mykosen 27,14 (1984). Wie aus Tabelle 4 ersichtlich, zeigen bei diesen in vitro-Prüfungen die erfindungsgemäßen Verbindungen gute antimykotische Eigenschaften,die denjenigen der Referenzsubstand Clotrimazol überlegen sind.

[3] = tested on: Microsporum canis (150/120); assay: as above; assay type: cell-based; settings: read-out: Minimale Hemmkonzentration
Excerpt: as §1

[4] = tested on: Trichophyton mentagrophytes (100/25); assay: as above; assay type: cell-based; settings: read-out: Minimale Hemmkonzentration
Excerpt: as §1

[5] = tested on: Trichophyton rubrum (101/58); assay: as above; assay type: cell-based; settings: read-out: Minimale Hemmkonzentration
Excerpt: as §1

[6] = tested on: Candida albicans (200/175); assay: as above; assay type: cell-based; settings: read-out: Minimale Hemmkonzentration
[7] = tested on: Trichophyton mentagrophytes; assay: local in vivo efficacy in experimentally infected guinea pigs, dermal treatment; design: species or system Meerschweinchen (Stamm Pirbright white); settings: Dermal 5 x 0.1 %; for Mykosen (Durchmesser in mm) Präparat + Vehikel x2: from day 3 after infection, mean, n = 6 measurements; for Mykosen Differenz (%): difference relative to Clotrimazol = 100; for Mykosen (Durchmesser in mm) Differenz x1 - x2: vehicle control side minus treated side
Excerpt: Als Beispiel für die hohe lokale in vivo Wirksamkeit der erfindungsgemäßen Verbindungen werden Behandlungsergebnisse an experimentell mit Trichophyton mentagrophytes infizierten Labortieren angeführt.
Zur Feststellung der lokalen Wirksamkeit wurden jeweils zwei 450-500 g schwere Meerschweinchen (Stamm Pirbright white) mit 1,5 x 10^4 Konidien/Tier in die Epidermis, verteilt auf 6 Infektionspunkte, infiziert.
Die Behandlung der Tiere erfolgte dermal ab dem 3. Tag nach der Infektion an 5 aufeinanderfolgenden Tagen durch Aufbringen einer 0,1 %igen Präparatlösung auf 3 Infektionsstellen einer Rückenseite. Die andere Rückenseite wurde mit Vehikel ohne Präparat auf gleiche Weise behandelt.
Neben den mit den erfindungsgemäßen Substanzen behandelten Tieren wurden zwei Tiere mit der Referenzsubstanz Clotrimazol behandelt, zwei Tiere blieben nach der Infektion unbehandelt.

[8] = tested on: Pentetrazol-induzierte Krämpfe; assay: antagonism of pentetrazol-induced convulsions (PTZ); assay type: in vivo, Maus; settings: mouse; pentetrazol 125 mg/kg s.c. 1 h after oral test substance; tonic extensor convulsions; read-out: ED50 (mg/kg p.o.) Ptz
Method: Antagonismus gegen Pentetrazol-induzierte Krämpfe (Maus) (PTZ)
Methode: • Gruppen von 10 männlichen Mäusen (Stamm: NMRI, SPF-71, KF) im Gewicht von 18-22 g werden in diesem Versuch verwendet. Die zu prüfenden Substanzen werden in einer 1 %igen Aufschwemmung von Tylose (Methyl-hydroxy-ethyl-cellulose) in Wasser suspendiert und per Schlundsonde in einem Volumen von 10 ml/kg Körpergewicht oral verabreicht. Die Kontrollgruppe erhält ein entsprechendes Volumen Tylosesuspension ohne Prüfsubstanz.
Pentetrazol (Cardiazol (R)) wird in wäßriger Lösung in einer Dosis von 125 mg/kg Körpergewicht 1 Stunde nach Verabreichung der Prüfsubstanzen subcutan injiziert. Diese Dosis erzeugt bei 90-100 % der Kontrolltiere innerhalb der Beobachtungszeit von 60 Minuten nach der Injektion tonische Extensorkrämpfe der hinteren Extremitäten. Als Schutzwirkung der Prüfsubstanz wird gewertet, wenn die Anzahl der krampfenden Tiere gegenüber der Kontrollgruppe vermindert ist.
Bei vorhandener Schutzwirkung der Prüfsubstanz wird eine mittlere effektive Dosis (ED-50) grafisch (Litchfield and Wilcoxon) oder rechnerisch(Probitanalyse) ermittelt.
Literatur: E.A. SWINYARD, J.Pharmacol.Exp. Ther. 106, (1952), 319-330

[9] = tested on: Elektroschock-induzierte Krämpfe; assay: antagonism of electroshock-induced convulsions (ECS); assay type: in vivo, Maus; settings: mouse; corneal electroshock 1 h after oral test substance; tonic extensor convulsions; read-out: ED50 (mg/kg p.o.) ECS
Method: Antagonismus gegen Elektroschock-induzierte Krämpfe (Maus) (ECS)
Methode: • Gruppen von 6 männlichen Mäusen (Stamm: NMRI, SPF-71, KF) im Gewicht von 18-22 g werden in diesem Versuch verwendet. Die zu prüfenden Substanzen werden in einer 1 %igen Aufschwemmung von Tylose (Methyl-hydroxy-ethyl-cellulose) in Wasser suspendiert und per Schlundsonde in einem Volumen von 10 ml/kg Körpergewicht oral verabreicht. Die Kontrollgruppe erhält ein entsprechendes Volumen Tylosesuspension ohne Prüfsubstanz.
Eine Stunde nach Prüfsubstanzgabe wird den.Tieren über Cornea-Elektroden ein Elektroschock verabreicht (Stromstärke 12-22 mA, Dauer 0.2 sec. 50 Hz), nachdem vorher an einer zweiten Kontrollgruppe die Stromstärke ermittelt worden war, die bei 100 % der Tiere einen tonischen Extensorkrampf der hinteren Extremitäten hervorruft.
Die Anzahl der durch die Prüfsubstanz vor einem Extensorkrampf geschützten Tiere dient als Maß der antikonvulsiven Wirkung in diesem Test.
Bei vorhandener Schutzwirkung der Prüfsubstanz wird eine mittlere effektive Dosis (ED-50) grafisch (Litchfield and Wilcoxon) oder rechnerisch (Probitanalyse) ermittelt.
Literatur: E.A. SWINYARD, In: Experimental Models of Epilepsy, Raven Press, New York, 1972, p. 433-458.

[10] = acute oral toxicity (LD-50); settings: in vivo, per os
[11] = tested on: Pseudo-cercosporella herpotrichoides; assay: agar plate test with Pseudocercosporella cultures (Versuch V); assay type: cell-based; settings: 144 h, 6 days after inoculation, read-out: Wirkungsgrad gegenüber Pseudo-cercosporella herpotrichoides in %; for inhibition of growth at 125 µg/mL: 125 ppm Wirkstoff in Biomalzagar; for inhibition of growth at 250 µg/mL: 250 ppm Wirkstoff in Biomalzagar; for inhibition of growth at 500 µg/mL: 500 ppm Wirkstoff in Biomalzagar
Method: Biomalzagar wurde mit den beanspruchten Verbindungen in den in Tabelle 10 angegebenen Konzentrationen versetzt. Nach dem Erstarren des Agars erfolgte die Beimpfung mit Pseudocercosporella-Kulturen. Jeweils 20 µl einer Sporensuspension wurden auf das Zentrum der Agarplatte aufgebracht. Die Versuche wurden 6 Tage nach Beimpfung ausgewertet. Der Wirkungsgrad der Wirkstoffe wird ausgedrückt in % im Vergleich zur Kontrolle (Agarmedium ohne Wirkstoff).

[12] = 60 mg Wirkstoff/Liter Spritzbrühe
[13] = 125 mg Wirkstoff/Liter Spritzbrühe
[14] = 250 mg Wirkstoff/Liter Spritzbrühe
[15] = 500 mg Wirkstoff/Liter Spritzbrühe

Structure (SMILES) | mit Weizenmehltau befallene Blattfläche in % [1, 12] | mit Weizenmehltau befallene Blattfläche in % [1, 13] | mit Weizenmehltau befallene Blattfläche in % [1, 14] | mit Weizenmehltau befallene Blattfläche in % [1, 15] | MIC [2] | MIC [3] | MIC [4] | MIC [5] | MIC [6] | Mykosen (Durchmesser in mm) Präparat + Vehikel x2 [7] | Mykosen Differenz (%) [7] | Mykosen (Durchmesser in mm) Differenz x1 - x2 [7] | ED50 [8] | ED50 [9] | LD50 [10] | inhibition of growth at 125 µg/mL [11] | inhibition of growth at 250 µg/mL [11] | inhibition of growth at 500 µg/mL [11]
CC1(C)CC(O)(Cn2ccnc2)c2ccccc21 (centres unmarked) [Beispiel 36, 1-(1H-Imidazol-1-ylmethyl)-3,3-dimethyl-indan-1-ol] | 0-3% | 0-3% | 0% | 0% | – | – | – | – | – | – | – | – | – | – | – | – | – | –
Clc1ccccc1C(c1ccccc1)(c1ccccc1)n1ccnc1 [Clotrimazol, reference compound] | – | – | – | – | 1.95 µg/mL (≈ 5.65 µM) | 0.97 µg/mL (≈ 2.81 µM) | 0.97 µg/mL (≈ 2.81 µM) | 0.97 µg/mL (≈ 2.81 µM) | 3.9 µg/mL (≈ 11.3 µM) | 7.6 mm | (100) % | 7 mm | – | – | – | – | – | –
OC1(Cn2ccnc2)CCc2ccccc21 (centres unmarked) [Verbindung 1 (Tab. 3), 1-Hydroxy-1-(1H-imidazol-1-ylmethyl)-indan] | – | – | – | – | – | – | – | – | – | – | – | – | 70 mg/kg | 18.2 mg/kg | 300 mg/kg | – | – | –
OC1(Cn2ccnc2)CCc2cc(Oc3ccccc3)ccc21 (centres unmarked) [Verbindung 11 (Tab. 3)] | – | – | – | – | – | – | – | – | – | – | – | – | 9.3 mg/kg | – | – | 100% | 100% | 100%
c1ccc(-c2ccc(C3(Cn4ccnc4)CCc4ccccc43)cc2)cc1 (centres unmarked) [Verbindung 13 (Tab. 1)] | – | – | – | – | – | – | – | – | – | – | – | – | 16 mg/kg | 17.3 mg/kg | > 300 mg/kg | 100% | 100% | 100%
Clc1ccc(C2(Cn3ccnc3)CCCc3ccccc32)cc1 (centres unmarked) [Verbindung 20 (Tab. 1)] | 3% | 0-3% | 0% | 0% | 0.97 µg/mL (≈ 3 µM) | 0.97 µg/mL (≈ 3 µM) | 0.97 µg/mL (≈ 3 µM) | 0.97 µg/mL (≈ 3 µM) | 1.95 µg/mL (≈ 6.04 µM) | 4.3 mm | (138.5) % | 9.7 mm | – | – | – | – | – | –
Fc1ccc(C2(Cn3ccnc3)CCCc3ccccc32)c(F)c1 (centres unmarked) [Verbindung 32 (Tab. 1)] | – | – | – | – | – | – | – | – | – | – | – | – | 17.2 mg/kg | 60 mg/kg | – | 100% | 100% | 100%
Fc1cc(Cl)ccc1C1(Cn2ccnc2)CCCc2ccccc21 (centres unmarked) [Verbindung 33 (Tab. 1)] | – | – | – | – | – | – | – | – | – | – | – | – | 55 mg/kg | 24.6 mg/kg | – | 100% | 100% | 100%
Cc1ccc(C2(Cn3ccnc3)CCc3ccccc32)cc1C (centres unmarked) [Verbindung 53 (Tab. 1)] | – | – | – | – | – | – | – | – | – | – | – | – | 30 mg/kg | 35.1 mg/kg | > 300 mg/kg | 100% | 100% | 100%
c1ccc(-c2ccc(C3(Cn4ccnc4)CCCc4ccccc43)cc2)cc1 (centres unmarked) [Verbindung 60 (Tab. 1)] | – | – | – | – | 1.95 µg/mL (≈ 5.35 µM) | 0.007 µg/mL (≈ 0.0192 µM) | 0.24 µg/mL (≈ 0.658 µM) | 0.06 µg/mL (≈ 0.165 µM) | 0.48 µg/mL (≈ 1.32 µM) | 4.5 mm | (157.1) % | 11 mm | – | – | – | 100% | 100% | 100%
c1ccc(Oc2ccc(C3(Cn4ccnc4)CCc4ccccc43)cc2)cc1 (centres unmarked) [Verbindung 67 (Tab. 1)] | – | – | – | – | 1.95 µg/mL (≈ 5.32 µM) | 0.06 µg/mL (≈ 0.164 µM) | 0.97 µg/mL (≈ 2.65 µM) | 0.97 µg/mL (≈ 2.65 µM) | 1.95 µg/mL (≈ 5.32 µM) | 3.2 mm | (107.1) % | 7.5 mm | – | – | – | – | – | –
c1ccc(Oc2ccc(C3(Cn4ccnc4)CCCc4ccccc43)cc2)cc1 (centres unmarked) [Verbindung 70 (Tab. 1)] | – | – | – | – | 0.97 µg/mL (≈ 2.55 µM) | 0.06 µg/mL (≈ 0.158 µM) | 0.48 µg/mL (≈ 1.26 µM) | 0.12 µg/mL (≈ 0.315 µM) | 0.97 µg/mL (≈ 2.55 µM) | 3 mm | (182.8) % | 12.8 mm | – | – | – | – | – | –

Source: patent EP0236913A2, “Aryl-azolylmethyl-benzocyclo-alkene derivatives, process for their preparation and their use” (HOECHST AKTIENGESELLSCHAFT, priority 1986, dated 1987)
